Laboratory results from patent US20240279205A1, “NOVEL BENZIMIDAZOLE DERIVATIVE” (Carna Biosciences, Inc., priority 2020, published 2024).

Key:
human STING (hSTING) = molecular target: T1, human STING (hSTING) (Homo sapiens, UniProt Q86WV6); assay: Inhibition test of intracellular human STING (hSTING) pathway using SEAP reporter cells (HEK-Blue ISG), stimulation with Compound 3; type: cell-based; set-up: hSTING inhibitory activity: scale not given here; details: Compound 3 10 nM stimulation, 21 hours
T1 construct: host or cells: HEK-Blue ISG cells (HEK293-derived SEAP reporter line)
Outline: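 HEK-Blue ISG cells with IRF-inducible SEAP reporter, pretreated 1 h with compound (final 0.1 to 10 μM), then stimulated with Compound 3 (final 10 nM) for 21 h at 37° C. Supernatant SEAP measured colorimetrically; IC50 from log-concentration regression, normalized to stimulated (100%) and unstimulated (0%) controls.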

[1] = system: STING activation (IFN-β production in THP-1 cells); assay: Human IFN-β production inhibition test by cGAMP stimulation in THP-1 cells; type: cell-based; set-up: IFN-β bioinhibitory activity: scale not given here; details: 2'3'-cGAMP transfection, 18 hours, IFN-β ELISA; for IC50: Homo sapiens, read-out: IFN-β bioinhibitory activity
Outline: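 PMA-primed (100 nM, overnight) THP-1 cells pretreated 1 h with compound at 0.001 to 1 μM (0.1% DMSO), then transfected with 0.12 μg/well 2′3′-cGAMP and cultured 18 hours. Supernatant IFN-β measured by ELISA; IC50 by regression against log concentration, normalised to cGAMP-only (100%) and unstimulated (0%) controls.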

T1 sequence (Q86WV6 whole entry H232R): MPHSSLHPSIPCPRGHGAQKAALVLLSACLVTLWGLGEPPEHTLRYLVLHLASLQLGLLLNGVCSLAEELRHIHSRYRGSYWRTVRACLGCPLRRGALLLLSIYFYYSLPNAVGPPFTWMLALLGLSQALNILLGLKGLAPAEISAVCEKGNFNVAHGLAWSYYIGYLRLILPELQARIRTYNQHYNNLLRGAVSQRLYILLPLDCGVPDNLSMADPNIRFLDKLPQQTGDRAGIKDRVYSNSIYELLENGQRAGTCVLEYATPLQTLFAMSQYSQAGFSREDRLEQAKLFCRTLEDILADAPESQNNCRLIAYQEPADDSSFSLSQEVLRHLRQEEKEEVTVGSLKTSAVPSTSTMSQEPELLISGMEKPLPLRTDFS

| hSTING inhibitory activity (human STING (hSTING)) | IC50 [1] | SMILES | IFN-β bioinhibitory activity [1] |
| --- | --- | --- | --- |
| * * * |  | Cn1c(Nc2c[nH]c3ccc(Cl)cc23)nc2cc(C(F)(F)F)cc(Cl)c21 [Embodiment 249, 7-Chloro-N-(5-chloro-1H-indol-3-yl)-1-methyl-5-(trifluoromethyl)-1 H-benzo[d]imidazol-2-amine] | * * |
| * * |  | Cn1c(Nc2c[nH]c3ccc(Cl)cc23)nc2cc(C(F)(F)F)c(Cl)cc21 [Embodiment 250, 6-Chloro-N-(5-chloro-1H-indol-3-yl)-1-methyl-5-(trifluoromethyl)-1H-benzo[d]imidazol-2-amine] | * * |
| * * * |  | CCn1c(Nc2c[nH]c3ccc(Cl)cc23)nc2cc(OC(F)(F)F)ccc21 [Embodiment 251, N-(5-Chloro-1H-indol-3-yl)-1-ethyl-5-(trifluoromethoxy)-1H-benzo [d]imidazol-2-amine] | * * |
| * * * |  | C#CCn1c(Nc2c[nH]c3ccc(Cl)cc23)nc2cc(OC(F)(F)F)ccc21 [Embodiment 253, N-(5-Chloro-1H-indol-3-yl)-1-(prop-2-yn-1-yl)-5-(trifluoromethoxy)-1H-benzo[d]imidazole-2-amine] | * * |
| * * * |  | Cn1c(Nc2c[nH]c3ccc(Cl)cc23)nc2cc(C(F)(F)F)c(F)cc21 [Embodiment 254, N-(5-Chloro-1H-indol-3-yl)-6-fluoro-1-methyl-5-(trifluoromethyl)-1H-benzo[d]imidazol-2-amine] | * * |
| * * * |  | CNn1c(Nc2c[nH]c3ccc(Cl)cc23)nc2cc(C(F)(F)F)ccc21.Cl [Embodiment 255, N2-(5-Chloro-1H-indol-3-yl)-N1-methyl-5-(trifluoromethyl)-1H-benzo[d]imidazole-1,2-diamine hydrochloride] | * * |
| * * * |  | Cc1ccc2[nH]cc(Nc3nc4cc(C(F)(F)F)cc(F)c4n3C)c2c1 [Embodiment 256, 7-fluoro-1-methyl-N-(5-methyl-1H-indol-3-yl)-5-(trifluoromethyl)-1H-benzo[d]imidazol-2-amine] | * * |
| * * * |  | Cn1c(Nc2c[nH]c3ccc(C#N)cc23)nc2cc(C(F)(F)F)cc(F)c21 [Embodiment 257, 3-{ [7-fluoro-1-methyl-5-(trifluoro methyl)-1H-benzo[d]imidazol-2-yl]amino}-1H-indole-5-carbonitrile] | * * |
| * * * |  | CN(C)n1c(Nc2c[nH]c3ccc(Cl)cc23)nc2cc(OC(F)(F)F)ccc21 [Embodiment 258, N2-(5-Chloro-1H-indol-3-yl)-N1, N1-dimethyl-5-(trifluoromethoxy)-1H-benzo[d]imidazole-1,2-diamine] | * * |
| * * | 100 to 1000 nM | N#CCCn1c(Nc2c[nH]c3ccc(Cl)cc23)nc2cc(C(F)(F)F)ccc21 [Embodiment 259, 3-{2-[(5-chloro-1H-indol-3-yl)amino]-5-(trifluoromethyl)-1H-benzo [d]imidazol-1-yl]propanenitrile] |  |
| * * | 100 to 1000 nM | OCCCn1c(Nc2c[nH]c3ccc(Cl)cc23)nc2cc(C(F)(F)F)ccc21 [Embodiment 260, 3-{2-[(5-Chloro-1H-indol-3-yl)amino]-5-(trifluoromethyl)-1H-benzo [d]imidazol-1-yl]propan-1-oar] |  |
| * * * |  | Cn1c(Nc2c[nH]c3cc(F)c(F)cc23)nc2cc(C(F)(F)F)cc(F)c21 [Embodiment 261, N-(5,6-difluoro-1H-indol-3-yl)-7-fluoro-1-methyl-5-(trifluoromethyl)-1H-benzo[d]imidazol-2-amine] | * * |
| * * * |  | Cn1c(Nc2c[nH]c3cc(F)c(Cl)cc23)nc2cc(C(F)(F)F)ccc21 [Embodiment 262, N-(5-Chloro-6-fluoro-1H-indol-3-yl)-1-methyl-5-(trifluoromethyl)-1 H-benzo[d]imidazol-2-amine] | * * |
| * * | 100 to 1000 nM | COc1cc2c(cc1C(F)(F)F)nc(Nc1c[nH]c3ccc(Cl)cc13)n2C [Embodiment 263, N-(5-Chloro-1H-indol-3-yl)-6-methoxy-1-methyl-5-(trifluoromethyl)-1H-benzo[d]imidazol-2-amine] |  |
| * * * | 100 to 1000 nM | Cn1c(Nc2c[nH]c3ccc(Cl)cc23)nc2cc(C(F)(F)F)cc(C#N)c21 [Embodiment 264, 2-[(5-Chloro-1H-indol-3-yl)amino]-1-methyl-5-(trifluoromethyl)-1H-benzo[d]imidazole-7-carbonitrile] |  |
| * * * |  | CN(C)n1c(Nc2c[nH]c3ccc(Cl)cc23)nc2cc(Cl)ccc21 [Embodiment 265, 5-Chloro-N2-(5-chloro-1H-indol-3-yl)-N1,N1-dimethyl-1H-benzo [d]imidazole-1,2-diamine] | * * |

| hSTING inhibitory activity (human STING (hSTING)) | IC50 [1] | SMILES | IFN-β bioinhibitory activity [1] |
| --- | --- | --- | --- |
| * * | 100 to 1000 nM | CN(C)n1c(Nc2c[nH]c3ccc(Cl)cc23)nc2ccc(C(F)(F)F)cc21 [Embodiment 266, N2-(5-Chloro-1H-indol-3-yl)-N1, N1-dimethyl-6-(trifluoromethyl)-1H-benzo[d]imidazole-1,2-diamine] |  |
| * * | 100 to 1000 nM | Fc1cc(C(F)(F)F)cc2nc(Nc3c[nH]c4ccc(Cl)cc34)[nH]c12 [Embodiment 267, N-(5-Chloro-1H-indol-3-yl)-7-fluoro-5-(trifluoromethyl)-1H-benzo [d]imidazol-2-amine] |  |
| * * |  | FC(F)(F)c1ccc2[nH]c(Nc3c[nH]c4ccc(Cl)cc34)nc2c1 [Embodiment 268, N-(5-Chloro-1H-indol-3-yl)-5-(trifluoromethyl)-1H-benzo[d]imidazol-2-amine] | * * |
| * * * |  | Nn1c(Nc2c[nH]c3ccc(Cl)cc23)nc2cc(C(F)(F)F)cc(F)c21 [Embodiment 269, N2-(5-Chloro-1H-indol-3-yl)-7-fluoro-5-(trifluoromethyl)-1H-benzo[d]imidazole-1,2-diamine] | * * |
| * * |  | Brc1ccc2[nH]cc(Nc3nc4cc(Oc5ccccc5)ccc4[nH]3)c2c1 [Example 3, N-(5-bromo-1H-indol-3-yl)-5-phenoxy-1H-benzo[d]imidazol-2-amine] | * * |
| * * * |  | Clc1ccc2[nH]c(Nc3c[nH]c4ccc(Br)cc34)nc2c1 [Example 4, N-(5-bromo-1H-indol-3-yl)-5-chloro-1H-benzo[d]imidazol-2-amine] | * * |
| * * | 100 to 1000 nM | COc1ccc2[nH]c(Nc3c[nH]c4ccc(Br)cc34)nc2c1 [Example 6, N-(5-bromo-1H-indol-3-yl)-5-methoxy-1H-benzo[d]imidazol-2-amine] |  |
| * * * |  | Brc1ccc2[nH]c(Nc3c[nH]c4ccc(Br)cc34)nc2c1 [Example 7, 5-bromo-N-(5-bromo-1H-indol-3-yl)-1H-benzo[d]imidazol-2-amine] | * * |
| * * |  | FC(F)(F)c1ccc2[nH]c(Nc3c[nH]c4ccc(Br)cc34)nc2c1 [Example 8, N-(5-bromo-1H-indol-3-yl)-5-(trifluoromethyl)-1H-benzo[d]imidazol-2-amine] | * * |
| * * | 100 to 1000 nM | Brc1ccc2[nH]cc(Nc3nc4cc(Oc5ccccc5)ccc4[nH]3)c2n1 [Example 12, N-(5-bromo-1H-pyrrolo[3,2-b]pyridin-3-yl)-5-phenoxy-1H-benzo[d]imidazol-2-amine] |  |
| * * | ≥ 1000 nM | Cn1c(Nc2c[nH]c3ccc(Br)cc23)nc2ccccc21 [Example 18, N-(5-bromo-1H-indol-3-yl)-1-methyl-1H-benzo[d]imidazol-2-amine] |  |
| * * | 100 to 1000 nM | N#Cc1ccc2[nH]c(Nc3c[nH]c4ccc(Br)cc34)nc2c1 [Example 19, 2-[(5-bromo-1H-indol-3-yl)amino]-1H-benzo[d]imidazole-5-carbonitrile] |  |
| * * |  | Brc1ccc2[nH]cc(Nc3nc4c(Br)cccc4[nH]3)c2c1 [Example 24, 4-bromo-N-(5-bromo-1H-indol-3-yl)-1H-benzo[d]imidazol-2-amine] | * * |
| * * |  | Fc1cccc2[nH]c(Nc3c[nH]c4ccc(Br)cc34)nc12 [Example 25, N-(5-bromo-1H-indol-3-yl)-4-fluoro-1H-benzo[d]imidazol-2-amine] | * * |
| * * |  | CN(C)c1cccc(Oc2ccc3[nH]c(Nc4c[nH]c5ccc(Br)cc45)nc3c2)c1 [Example 26, N-(5-bromo-1H-indol-3-yl)-5-[3-(dimethylamino)phenoxy]-1H-benzo[d]imidazol-2-amine] | * * |
| * * |  | FC(F)(F)c1ccc2[nH]c(Nc3c[nH]c4ccc(Br)nc34)nc2c1 [Example 31, N-(5-bromo-1H-pyrrolo[3,2-b]pyridin-3-yl)-5-(trifluoromethyl)-1H-benzo[d]imidazol-2-amine] | * * * |
